From the NIST ThermoML archive (doi:10.1021/acs.jced.5b00597)
Where “and” joins values, the source holds several entries; their conditions need not be identical. Identical values can stand only once. Numbers after ± are expanded uncertainties.

Assay: molar heat capacity at constant pressure
Conditions: Liquid, Flow calorimetry

FC(F)CC(F)(F)F [1,1,1,3,3-pentafluoropropane]
molar heat capacity at constant pressure (277.89 K, 518.3 kPa): 170.11 ± 0.67 J/K/mol
molar heat capacity at constant pressure (277.9 K, 519 kPa): 171.31 ± 1.9 J/K/mol
molar heat capacity at constant pressure (282.87 K, 509.6 kPa): 171.72 ± 0.67 J/K/mol
molar heat capacity at constant pressure (282.87 K, 511 kPa): 172.65 ± 0.8 J/K/mol
molar heat capacity at constant pressure (287.9 K, 513.9 kPa): 173.46 ± 0.67 J/K/mol
molar heat capacity at constant pressure (287.92 K, 512.5 kPa): 173.46 ± 1.6 J/K/mol and 171.85 ± 0.67 J/K/mol
molar heat capacity at constant pressure (292.91 K, 518.1 kPa): 179.09 ± 0.8 J/K/mol
molar heat capacity at constant pressure (297.89 K, 514.6 kPa): 177.61 ± 0.67 J/K/mol and 177.21 ± 0.67 J/K/mol
molar heat capacity at constant pressure (302.89 K, 517.2 kPa): 178.42 ± 0.8 J/K/mol
molar heat capacity at constant pressure (302.9 K, 518 kPa): 179.09 ± 0.8 J/K/mol
molar heat capacity at constant pressure (307.87 K, 519.5 kPa): 181.23 ± 1.2 J/K/mol
molar heat capacity at constant pressure (307.88 K, 504.1 kPa): 181.1 ± 0.67 J/K/mol
molar heat capacity at constant pressure (307.88 K, 514.4 kPa): 182.17 ± 0.94 J/K/mol [middle of 4 runs]
molar heat capacity at constant pressure (307.88 K, 808.1 kPa): 181.5 ± 0.8 J/K/mol
molar heat capacity at constant pressure (307.89 K, 517.9 kPa): 182.71 ± 1.5 J/K/mol
molar heat capacity at constant pressure (307.89 K, 518.2 kPa): 181.77 ± 1.3 J/K/mol
molar heat capacity at constant pressure (307.89 K, 522.2 kPa): 181.63 ± 0.8 J/K/mol
molar heat capacity at constant pressure (307.92 K, 415.8 kPa): 180.7 ± 0.8 J/K/mol
molar heat capacity at constant pressure (307.93 K, 520.4 kPa): 182.71 ± 2 J/K/mol
molar heat capacity at constant pressure (312.89 K, 514.5 kPa): 181.77 ± 0.8 J/K/mol
molar heat capacity at constant pressure (313.89 K, 520.4 kPa): 180.96 ± 0.8 J/K/mol
molar heat capacity at constant pressure (317.9 K, 522.2 kPa): 183.24 ± 0.8 J/K/mol
molar heat capacity at constant pressure (317.9 K, 522.6 kPa): 181.9 ± 0.8 J/K/mol
molar heat capacity at constant pressure (322.94 K, 518.4 kPa): 185.66 ± 0.67 J/K/mol
molar heat capacity at constant pressure (322.95 K, 517.7 kPa): 184.85 ± 1.5 J/K/mol and 184.58 ± 0.67 J/K/mol
molar heat capacity at constant pressure (327.96 K, 806.4 kPa): 187.13 ± 0.94 J/K/mol
molar heat capacity at constant pressure (327.97 K, 808.9 kPa): 185.92 ± 1.3 J/K/mol
molar heat capacity at constant pressure (332.97 K, 815 kPa): 189.41 ± 0.94 J/K/mol
molar heat capacity at constant pressure (332.97 K, 816.5 kPa): 187.8 ± 0.94 J/K/mol
molar heat capacity at constant pressure (337.98 K, 810.3 kPa): 190.62 ± 0.94 J/K/mol
molar heat capacity at constant pressure (342.96 K, 817.2 kPa): 192.22 ± 0.8 J/K/mol
molar heat capacity at constant pressure (342.99 K, 813.6 kPa): 192.49 ± 0.8 J/K/mol
